Assay results as given in paper PMC9518264, “Design and synthesis of novel quinazolinone-based derivatives as EGFR inhibitors with antitumor activity” (Journal of Enzyme Inhibition and Medicinal Chemistry, 2022).

What was measured:
COLO-205 = experiment: cells; format: cell-based; settings: Homo sapiens; COLO-205; 10 μM; read-out: growth inhibition % (GI%)
NCI-H460 = experiment: cells; format: cell-based; settings: Homo sapiens; NCI-H460; 10 μM; read-out: growth inhibition % (GI%)
SK-OV-3 = experiment: cells; format: cell-based; settings: Homo sapiens; SK-OV-3; 10 μM; read-out: growth inhibition % (GI%)
EKVX = experiment: cells; format: cell-based; settings: Homo sapiens, 10 μM, read-out: growth inhibition % (GI%)
HCT-15 = experiment: cells; format: cell-based; settings: Homo sapiens; HCT-15; 10 μM; read-out: growth inhibition % (GI%)
NCI-H522 = experiment: cells; format: cell-based; settings: Homo sapiens; NCI-H522; 10 μM; read-out: growth inhibition % (GI%)
HCT-116 = experiment: cells; format: cell-based; settings: Homo sapiens; HCT-116; 10 μM; read-out: growth inhibition % (GI%)
SF-268 = experiment: cells; format: cell-based; settings: Homo sapiens; SF-268; 10 μM; read-out: growth inhibition % (GI%)
MALME-3M = experiment: cells; format: cell-based; settings: Homo sapiens; MALME-3M; 10 μM; read-out: growth inhibition % (GI%)
OVCAR-5 = experiment: cells; format: cell-based; settings: Homo sapiens; OVCAR-5; 10 μM; read-out: growth inhibition % (GI%)
HOP-92 = experiment: cells; format: cell-based; settings: Homo sapiens; HOP-92; 10 μM; read-out: growth inhibition % (GI%)
LOX IMIV = experiment: cells; format: cell-based; settings: Homo sapiens, 60 cell; LOX IMIV; 10 μM; read-out: growth inhibition % (GI%)
BT-549 = experiment: cells; format: cell-based; settings: Homo sapiens; BT-549; 10 μM; read-out: growth inhibition % (GI%)
CCRF-CEM = experiment: cells; format: cell-based; settings: Homo sapiens, 10 μM, read-out: growth inhibition % (GI%)
OVCAR-4 = experiment: cells; format: cell-based; settings: Homo sapiens; OVCAR-4; 10 μM; read-out: growth inhibition % (GI%)
DU-145 = experiment: cells; format: cell-based; settings: Homo sapiens; DU-145; 10 μM; read-out: growth inhibition % (GI%)
A498 = experiment: cells; format: cell-based; settings: Homo sapiens; A498; 10 μM; read-out: growth inhibition % (GI%)
OVCAR-8 = experiment: cells; format: cell-based; settings: Homo sapiens; OVCAR-8; 10 μM; read-out: growth inhibition % (GI%)
SF-539 = experiment: cells; format: cell-based; settings: Homo sapiens; SF-539; 10 μM; read-out: growth inhibition % (GI%)
SK-MEL-5 = experiment: cells; format: cell-based; settings: Homo sapiens; SK-MEL-5; 10 μM; read-out: growth inhibition % (GI%)
HOP-62 = experiment: cells; format: cell-based; settings: Homo sapiens; HOP-62; 10 μM; read-out: growth inhibition % (GI%)
786-0 = experiment: cells; format: cell-based; settings: Homo sapiens; 786-0; 10 μM; read-out: growth inhibition % (GI%)
HCC-2998 = experiment: cells; format: cell-based; settings: Homo sapiens; HCC-2998; 10 μM; read-out: growth inhibition % (GI%)
T-47D = experiment: cells; format: cell-based; settings: Homo sapiens, T47D; T-47D; 10 μM; read-out: growth inhibition % (GI%)
MOLT-4 = experiment: cells; format: cell-based; settings: Homo sapiens; MOLT-4; 10 μM; read-out: growth inhibition % (GI%)
NCI-H226 = experiment: cells; format: cell-based; settings: Homo sapiens; NCI-H226; 10 μM; read-out: growth inhibition % (GI%)
SF-295 = experiment: cells; format: cell-based; settings: Homo sapiens; SF-295; 10 μM; read-out: growth inhibition % (GI%)
MDA-MB-468 = experiment: NCI 60 cell line antiproliferative screening (SRB), Breast cancer; settings: Homo sapiens, MDA-MB-468, read-out: growth inhibition % (GI%)
SN12C = experiment: cells; format: cell-based; settings: Homo sapiens, 10 μM, read-out: growth inhibition % (GI%)
UACC-257 = experiment: cells; format: cell-based; settings: Homo sapiens; UACC-257; 10 μM; read-out: growth inhibition % (GI%)
SK-MEL-2 = experiment: cells; format: cell-based; settings: Homo sapiens; SK-MEL-2; 10 μM; read-out: growth inhibition % (GI%)
NCI-H322M = experiment: cells; format: cell-based; settings: Homo sapiens, 10 μM, read-out: growth inhibition % (GI%)
U251 = experiment: cells; format: cell-based; settings: Homo sapiens, U-251; U251; 10 μM; read-out: growth inhibition % (GI%)
NCI/ADR-RES = experiment: cells; format: cell-based; settings: Homo sapiens, 10 μM, read-out: growth inhibition % (GI%)
MCF7 = experiment: cells; format: cell-based; settings: Homo sapiens; MCF7; 10 μM; read-out: growth inhibition % (GI%)
OVCAR-3 = experiment: NCI 60 cell line antiproliferative screening (SRB), Ovarian cancer; settings: Homo sapiens, OVCAR-3, read-out: growth inhibition % (GI%)
A549/ATCC = experiment: cells; format: cell-based; settings: Homo sapiens; A549/ATCC; 10 μM; read-out: growth inhibition % (GI%)
IGROV1 = experiment: cells; format: cell-based; settings: Homo sapiens, IGROV-1; IGROV1; 10 μM; read-out: growth inhibition % (GI%)
[1] = test system: panel of 60 tumour cell lines; experiment: NCI 60 cell line antiproliferative screening (SRB), whole panel or subpanels (means, ranges, words); format: cell-based, human
TK-10 = experiment: cells; format: cell-based; settings: Homo sapiens; TK-10; 10 μM; read-out: growth inhibition % (GI%)
KM12 = experiment: cells; format: cell-based; settings: Homo sapiens; KM12; 10 μM; read-out: growth inhibition % (GI%)
HL-60(TB) = experiment: cells; format: cell-based; settings: Homo sapiens; HL-60(TB); 10 μM; read-out: growth inhibition % (GI%)
PC-3 = experiment: cells; format: cell-based; settings: Homo sapiens; PC-3; 10 μM; read-out: growth inhibition % (GI%)
ACHN = experiment: cells; format: cell-based; settings: Homo sapiens, 10 μM, read-out: growth inhibition % (GI%)
SNB-75 = experiment: cells; format: cell-based; settings: Homo sapiens; SNB-75; 10 μM; read-out: growth inhibition % (GI%)
SNB-19 = experiment: cells; format: cell-based; settings: Homo sapiens; SNB-19; 10 μM; read-out: growth inhibition % (GI%)

COc1ccc(Oc2ccc(C=NNC(=O)CSc3nc4ccccc4c(=O)n3-c3ccccc3)cc2)cc1 [6c, N'-(4–(4-methoxyphenoxy)benzylidene)-2-((4-oxo-3-phenyl-3,4-dihydroquinazolin-2-yl)thio)acetohydrazide]
17.2%: inhibition at 10 µM (A498)
< 0%: Mean growth inhibition % (mean GI%) ([1]; mean over the cell line panel, 10 μM)
0%: inhibition at 10 µM ([1]; Homo sapiens, 60 cell, mean over the cell line panel, 10 μM, read-out: Mean growth inhibition % (mean GI%))
< 15%: inhibition at 10 µM (COLO-205) | inhibition at 10 µM (NCI-H460) | inhibition at 10 µM (SK-OV-3) | inhibition at 10 µM (EKVX) | inhibition at 10 µM (HCT-15) | inhibition at 10 µM (NCI-H522) | inhibition at 10 µM (HCT-116) | inhibition at 10 µM (SF-268) | inhibition at 10 µM (MALME-3M) | inhibition at 10 µM (OVCAR-5) | inhibition at 10 µM (HOP-92) | inhibition at 10 µM (LOX IMIV) | inhibition at 10 µM (BT-549) | inhibition at 10 µM (CCRF-CEM) | inhibition at 10 µM (OVCAR-4) | inhibition at 10 µM (DU-145) | inhibition at 10 µM (OVCAR-8) | inhibition at 10 µM (SF-539) | inhibition at 10 µM (SK-MEL-5) | inhibition at 10 µM (HOP-62) | inhibition at 10 µM (786-0) | inhibition at 10 µM (HCC-2998) | inhibition at 10 µM (T-47D) | inhibition at 10 µM (MOLT-4) | inhibition at 10 µM (NCI-H226) | inhibition at 10 µM (SF-295) | inhibition at 10 µM (MDA-MB-468) | inhibition at 10 µM (SN12C) | inhibition at 10 µM (UACC-257) | inhibition at 10 µM (SK-MEL-2) | inhibition at 10 µM (NCI-H322M) | inhibition at 10 µM (U251) | inhibition at 10 µM (NCI/ADR-RES) | inhibition at 10 µM (MCF7) | inhibition at 10 µM (OVCAR-3) | inhibition at 10 µM (A549/ATCC) | inhibition at 10 µM (IGROV1) | inhibition at 10 µM (TK-10) | inhibition at 10 µM (KM12) | inhibition at 10 µM (HL-60(TB)) | inhibition at 10 µM (PC-3) | inhibition at 10 µM (ACHN) | inhibition at 10 µM (SNB-75) | inhibition at 10 µM (SNB-19)
no activity: antiproliferative activity against all tested cell lines ([1]; 10 μM single dose)
